Experimental data as given in patent US20250388544A1, “HETEROAROMATIC INHIBITORS OF ASTACIN PROTEINASES” (VIVORYON THERAPEUTICS N.V., priority 2019, published 2025).

What was measured:
Assay type in all cases: biochemical
hMeprin α = target: T1, hMeprin α (Homo sapiens, UniProt Q16819); test: Enzymatic assay, quenched peptide substrate cleavage, method A; conditions: geometric mean (geometric SD factor in parentheses), read-out: Meprin alpha IC50
T1 sequence (Q16819 66-746): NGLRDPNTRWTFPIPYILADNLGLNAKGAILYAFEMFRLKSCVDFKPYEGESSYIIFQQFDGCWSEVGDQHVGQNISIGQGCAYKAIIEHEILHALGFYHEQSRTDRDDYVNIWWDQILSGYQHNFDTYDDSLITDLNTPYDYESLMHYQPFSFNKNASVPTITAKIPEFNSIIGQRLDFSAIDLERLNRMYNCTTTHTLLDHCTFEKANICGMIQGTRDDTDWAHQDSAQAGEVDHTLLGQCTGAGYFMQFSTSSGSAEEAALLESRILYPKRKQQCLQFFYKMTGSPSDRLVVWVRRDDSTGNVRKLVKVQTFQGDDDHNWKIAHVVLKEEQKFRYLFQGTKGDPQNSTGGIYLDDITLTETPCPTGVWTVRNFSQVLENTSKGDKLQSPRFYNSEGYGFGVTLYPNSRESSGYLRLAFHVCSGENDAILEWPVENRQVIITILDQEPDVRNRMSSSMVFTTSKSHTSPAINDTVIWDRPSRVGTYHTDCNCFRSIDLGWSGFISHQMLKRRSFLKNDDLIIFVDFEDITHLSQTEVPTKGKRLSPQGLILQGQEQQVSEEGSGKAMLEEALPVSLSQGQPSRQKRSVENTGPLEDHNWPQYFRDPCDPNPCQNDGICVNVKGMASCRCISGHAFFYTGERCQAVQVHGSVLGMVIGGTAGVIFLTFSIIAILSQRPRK

hMeprin β = target: T2, hMeprin β (Homo sapiens, UniProt Q16820); test: as above; conditions: geometric mean (geometric SD factor in parentheses), read-out: Meprin beta IC50
T2 sequence (Q16820 62-701): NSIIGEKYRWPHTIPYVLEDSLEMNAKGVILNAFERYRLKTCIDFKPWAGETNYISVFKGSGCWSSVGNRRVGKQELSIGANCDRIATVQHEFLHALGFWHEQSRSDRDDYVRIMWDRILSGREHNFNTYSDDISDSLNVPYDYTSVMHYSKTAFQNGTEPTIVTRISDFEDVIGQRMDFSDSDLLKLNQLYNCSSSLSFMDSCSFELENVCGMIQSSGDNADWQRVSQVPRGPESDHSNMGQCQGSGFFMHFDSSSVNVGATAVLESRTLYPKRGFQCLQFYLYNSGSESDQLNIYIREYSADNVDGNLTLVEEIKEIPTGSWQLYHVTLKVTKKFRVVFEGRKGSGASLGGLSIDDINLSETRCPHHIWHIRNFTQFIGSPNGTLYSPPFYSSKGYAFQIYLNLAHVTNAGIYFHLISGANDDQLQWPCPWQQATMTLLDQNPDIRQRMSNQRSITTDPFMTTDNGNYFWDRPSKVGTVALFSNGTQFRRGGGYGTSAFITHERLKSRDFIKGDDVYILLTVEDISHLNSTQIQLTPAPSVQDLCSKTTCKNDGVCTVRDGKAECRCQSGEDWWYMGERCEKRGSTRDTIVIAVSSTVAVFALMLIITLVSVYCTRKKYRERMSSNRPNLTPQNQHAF

hMMP 13 = target: T3, hMMP 13 (Homo sapiens, UniProt P45452); test: Residual enzyme activity of other metalloproteases; conditions: read-out: Residual enzyme activity MMP13
T3 construct: purchased R&D systems
Experimental: (§1) A typical assay of 250 μl total volume measured in black 96 well plates consisted of 100 μl buffer, 50 μl enzyme at a final concentration of 5e-8 M to 2e-10 M, 50 μl substrate (0.15 to 80 μM, in buffer, 0.5% DMSO) and 50 μl inhibitor solution (in buffer, 1% DMSO). In case of 125 μl assay volume (black 96 half area well plates) all volumes were cut in half. Enzymatic activity of ADAMs was measured in 384 well plates with 60 μl total assay volume consisting of 20 μl inhibitor, 20 μl buffer, 10 μl enzyme and 10 μl substrate.
(§2) MMPs were activated prior to measurement by APMA (p-aminophenylmercuric acetate) treatment according to manufacturer's instructions (R&D systems).

hMMP 2 = target: T4, hMMP 2 (Homo sapiens, UniProt P08253); test: Residual enzyme activity of other metalloproteases; conditions: read-out: Residual enzyme activity MMP2
T4 construct: purchased Abnova
T4 sequence (P08253 110-660): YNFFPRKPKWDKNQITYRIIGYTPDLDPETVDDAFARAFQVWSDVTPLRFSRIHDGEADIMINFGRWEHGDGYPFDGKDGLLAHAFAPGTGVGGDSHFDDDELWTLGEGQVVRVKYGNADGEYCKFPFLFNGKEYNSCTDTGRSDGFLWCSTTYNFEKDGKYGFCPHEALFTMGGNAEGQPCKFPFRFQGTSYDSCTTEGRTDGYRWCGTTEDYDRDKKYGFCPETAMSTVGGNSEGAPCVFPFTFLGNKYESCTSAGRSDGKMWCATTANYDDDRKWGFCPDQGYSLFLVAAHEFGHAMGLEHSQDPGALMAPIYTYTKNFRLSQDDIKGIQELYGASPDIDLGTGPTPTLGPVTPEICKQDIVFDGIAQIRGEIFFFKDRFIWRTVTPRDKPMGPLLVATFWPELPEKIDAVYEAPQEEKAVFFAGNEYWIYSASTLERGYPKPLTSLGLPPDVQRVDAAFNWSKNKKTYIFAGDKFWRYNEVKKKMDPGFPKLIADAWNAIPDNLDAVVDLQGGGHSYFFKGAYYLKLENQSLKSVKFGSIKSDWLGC
Experimental: as §1, §2

IC50 (hMeprin α): 173 nM | IC50 (hMeprin β): 1630 nM | remaining activity at 10 µM (hMMP 13; 10 μM inhibitor): 102% | remaining activity at 200 µM (hMMP 13; 200 μM inhibitor): 72% | remaining activity at 10 µM (hMMP 2; 10 μM inhibitor): 89% | remaining activity at 200 µM (hMMP 2; 200 μM inhibitor): 46%
SMILES: O=C(Cn1c(-c2ccccc2)nc2ccccc21)NO [Example 13, 2-(2-Phenylbenzimidazol-1-yl)ethanehydroxamic acid]
